Values of other authors in US20230113836A1, “NEW CONJUGATES OF PEPTIDES AND POLYSACCHARIDE” (ENLITISA (SHANGHAI) PHARMACEUTICAL CO., LTD., priority 2019, published 2023).

Tested on: Drosophila model organism
Conditions: Foureman et al., 1994

## C(CCOCC1CO1)COCC1CO1 (stereo not shown) [BDDE, 1,4-butanediol diglycidyl ether]
  Mutagenicity: mutagenic
